The values below are quoted from earlier work in patent publication US20100286080A1, “AQUEOUS COMPOSITION COMPRISING CHITOSAN AND AN ACIDIC DRUG” (The Jordanian Pharmaceutical Manufacturing Co., priority 2007, published 2010).

The structures appear in SMILES notation.

For data set [1] the following is noted: single 200-mg oral dose, fasting subjects.

`CC(C)Cc1ccc(C(C)C(=O)O)cc1` (centres unmarked) [Ibuprofen]: the Solubility in water entry was “practically insoluble in water”. The “Time of peak plasma levels after administration” value in data set [1] was “about 1 hr”.
